Key:
B16F10 cells = test: Hyperglycemia-induced cancer metastasis in lungs of diabetic mice (melanoma nodules); type: in vivo, C57BL/6 mice; settings: 10 mg/kg midazolam intraperitoneal daily for 14 days, B16F10 cells intravenously (FIG. 22)
Method: FIGS. 22A and 22B show the preventive effects of midazolam against hyperglycemia-induced cancer metastasis in the lungs of diabetic mice. Six-week-old male C57BL/6 mice were administered with streptozotocin (150 mg/kg) to give diabetic mouse models. One weeks after streptozotocin injection, diabetic mice were administered 10 mg/kg midazolam by intraperitoneal injection daily for 14 days, and diabetic and midazolam supplemented diabetic mice were intravenously injected with B16F10 cells (5×10^5) in PBS. The weight of mice were measure in diabetic (16.4±0.2 g) and midazolam supplemented diabetic mice (16.2±0.5 g). Blood glucose levels were also monitored in diabetic (511.0±10.0 mg/dL) and midazolam supplemented diabetic mice (515.7±3.4 mg/dL). Two weeks later, the mice were euthanized by cervical dislocation, and the lungs were removed and bleached in Fekete's solution (70% ethanol, 3.7% paraformaldehyde, 0.75 M glacial acetic acid). Representative images of melanoma metastasis in lungs are shown in additional FIG. 22A. The results of melanoma metastasis assessed by counting metastatic lung nodules under a dissection microscope are shown in additional FIG. 22B (n=2/group).

[1] = tested on: endothelial monolayer of HRECs; test: Analysis of cell permeability (FITC-dextran, Transwell); type: cell-based, human; settings: HREC monolayer, 10 ng/mL VEGF 90 min with 20 μM midazolam, 5 μM BAPTA-AM, 1 mM NAC, 0.5 μM Trolox, 50 μM cystamine or 20 μM MDC; 40 kDa FITC-dextran 60 min (FIG. 7)
Method: The HRECs were cultured (e.g. about 5 days) until the cell confluence thereof reached an appropriate level on gelatin-coated 0.4 μm polycarbonate membranes of Transwell Permeable Supports (Costar, Corning, N.Y.), followed by the respective treatments below and culture for 30 min. Here, treatment with 10 ng/mL VEGF was performed for 90 min. Thereafter, the HRECs were treated with 1 mg/mL 40 kDa FITC-dextran (Sigma-Aldrich), incubated for 60 min, after which the amount of FITC-dextran that was diffused into the lower chamber through the endothelial monolayer of HERCs was measured using a microplate spectrofluorometer (Molecular Devices, Sunnyvale, Calif.).

[2] = tested on: human retinal endothelial cells (HRECs); test: Identification of receptor of midazolam through ROS concentration analysis; type: cell-based
Method: With reference to FIG. 10A, the HRECs of Test Example 1 were subjected to the respective treatments below, cultured for 10 min, treated with 10 μM H2DCFDA, stained for 10 min in a phenol-red-free low-serum medium, and measured using confocal microscopy to thus determine the fluorescence intensity of single cells.
As will be described below, flumazenil was used as a GABAA receptor antagonist and PK11195 was used as a TSOP receptor antagonist.
With reference to FIG. 10B, the HRECs of Test Example 1 were treated with 0 μM, 0.01 μM, 0.1 μM, 1 μM, 10 μM, 20 μM, and 50 μM flumazenil and 0 μM, 0.01 μM, 0.1 μM, 1 μM, 3 μM, 10 μM, and 30 μM PK11195, cultured for 1 hr, treated with 20 μM midazolam, cultured for 30 min, treated with 10 ng/ml VEGF, incubated for 10 min, treated with 10 μM H2DCFDA, stained for 10 min in a phenol-red-free low-serum medium, and then measured using confocal microscopy to thus determine the fluorescence intensity of single cells.

TGase = test: Analysis of TGase activity of cells (5-(biotinamido)pentylamine incorporation); type: cell-based, human; settings: HRECs
Method: Purchased from Applied Cell Biology Research Institute (Cell Systems, Kirkland, Wash.), human retinal endothelial cells (HRECs) were cultured in an M19 medium, containing 20% FBS, 3 ng/mL bFGF, 5 U/mL heparin, 100 U/mL penicillin and […], in a 2% gelatin-coated plate.
Before the following Test Examples 2 to 7, the HRECs were cultured for 6 hr in a medium containing 1% FBS and an antibiotic agent, thus preparing HRECs of Test Example 1.
With reference to FIG. 4A, the HRECs of Test Example 1 were treated with 0 to 20 μM midazolam, cultured for 2 hr, treated with 10 ng/mL VEGF, incubated for 2 hr, treated with 1 mM 5-(biotinamido)pentylamine, incubated for 1 hr, fixed with 3.7% formaldehyde, treated with 0.2% triton X-100, treated with a blocking solution containing 138 mM NaCl, 0.1% Tween 20 and 2% BSA dissolved in a 20 mM Tris (pH 7.6) buffer, incubated for 30 min, incubated for 1 hr with FITC-conjugated streptavidin (1:200, v/v), and then measured using confocal microscopy to thus determine the fluorescence intensity of single cells.
With reference to FIG. 4B, the HRECs of Test Example 1 were subjected to the respective treatments below and cultured for 30 min. Here, treatment with 10 ng/mL VEGF was performed for 2 hr. […]

Cc1ncc2n1-c1ccc(Cl)cc1C(c1ccccc1F)=NC2 [midazolam]
number of metastatic nodules in the lungs (B16F10 cells): the number of metastatic nodules in the lungs of diabetic mice was suppressed
FITC-dextran diffused into lower chamber (cell permeability) / adherens junction disruption due to VEGF [1]: prevented the adherens junction disruption due to VEGF and thus FITC-dextran was not diffused
ROS concentration (VEGF-induced) compared to control ([2]; 20 μM midazolam 10 min then 10 ng/ml VEGF, no washing (FIG. 10A)): no significant ROS concentration increase was observed
ROS concentration (VEGF-induced, after washing) ([2]; 20 μM midazolam 30 min, washing with serum-free medium, then 10 ng/ml VEGF (FIG. 10A)): ROS concentration was increased
TGase activity, concentration dependence (TGase; 0 to 20 μM midazolam 2 hr, then 10 ng/mL VEGF 2 hr (FIG. 4A)): TGase activity was decreased with an increase in the concentration of midazolam
TGase activity (VEGF-induced) compared to control (TGase; 10 ng/mL VEGF 2 hr with 20 μM midazolam, 5 μM BAPTA-AM, 1 mM NAC, 0.5 μM Trolox, 50 μM cystamine or 20 μM MDC (FIG. 4B)): substantially the same effect of inhibiting TGase activity as the TGase inhibitors cystamine and MDC

Reference: patent US11020405B2, “Method for prevention or treatment of diabetic complications” (KANGWON NATIONAL UNIVERSITY UNIVERSITY-INDUSTRY COOPERATION …, priority 2017, dated 2021)
